Results on three substances are retold here after patent publication US9192667B2, “Method of treating cancer by administering CSF-1R antibodies and a TLR9 agonist” (Hoffmann-La Roche Inc., priority 2013, dated 2015).

The conditions of series [1]: phase 1/1 I clinical study; cited from earlier work.
The test system of a further series is lymphoma. The settings on record: phase 1/1 I clinical study; cited from earlier work.
The conditions of series [2]: SCID mouse; cited from earlier work.
For series [3], the system named is MC38 mouse CRC in vivo model. The series can be described thus: Tumor growth inhibition in subcutaneous syngeneic MC38 colon carcinoma model. The settings on record: antibody 30 mg/kg i.p. weekly, CpG ODN 1826 100 μg peritumoral 1×; for TGI (day 24): versus control antibody. An excerpt: Additionally to the assessment of median tumor volume after 2 weeks of treatment the progression of individual tumors in the study was followed until progression ≧700 mm3 (FIG. 1 (CpG is TLR9 agonist CpG ODN 1826) and Table 11)

For the substance “d(P-Thio)(TCGTCGTTTTGTCGTTTTGTCGTT)DNA [CpG-7909]”, in series [1], the “tolerability” value is recorded as “well tolerated”. Also, the “antilymphoma activity” value with lymphoma is reported as “antilymphoma activity”.
In the case of “CpG-685: synthetic, 21-mer fully phosphorothioated CpG ODN 5′-tcgtcgacgtcgttcgttctc-3′ (SEQ ID NO: 93), SBI Biotech (DNA TCGTCGACGTCGTTCGTTCTC; DNA, all phosphorothioate, methylation of C not given here)”, the “antitumor effects” value in series [2] is listed as “showed antitumor effects”.
On to CpG ODN 1826, for which, in series [3], the “Median time to progression TV > 700 mm3” value is 24 days, the “TCR (day 24)” value turned out to be 0.28 and the “TGI (day 24)” value is 74%. Moreover, in series [3] (listed as TLR9 agonist (CpG)), the “TGI (day 24)” value is 73%.
